Results taken from patent US20070117770A1, “Human ribosomal DNA (rDNA) and ribosomal RNA (rRNA) nucleic acids and uses thereof” (Cylene Pharmaceuticals, Inc., priority 2005, published 2007).

Tests used:
Experiment in all cases: Protein kinase inhibition assay
Assay type in all cases: biochemical
Abl(m) = Abl(m) (Mus musculus, UniProt P00520); conditions: read-out: percent residual activity of Abl(m)
Procedure: (§1) Certain compounds were tested for activity in protein kinase inhibition assays. All substrates were dissolved and diluted to working stocks in de-ionized water, apart from histone H1 (10× working stock in 20 mM MOPS pH 7.0), PDKtide (10× working stock in 50 mM Tris pH 7.0) ATF2 (which is typically stored at a 20× working stock in 50 mM Tris pH 7.5, 150 mM NaCl, 0.1 mM EGTA, 0.03% Brij-35, 50% glycerol, 1 mM benzamidine, 0.2 mM PMSF and 0.1% R-mercaptoethanol), KKLNRTLSFAEPG (SEQ ID NO:203) and RRRLSFAEPG (SEQ ID NO:204) (50 mM HEPES pH 7.4) and GGEEEEYFELVKKKK (SEQ ID NO:205) (20 mM MOPS pH 7.0). All kinases were pre-diluted to a 10× working concentration prior to addition into the assay. The composition of the dilution buffer for each kinase is detailed below.
(§2) In a final reaction volume of 25 μl, Abl (m) (5-10 mU) is incubated with 8 mM MOPS pH 7.0, 0.2 mM EDTA, 50 μM EAIYAAPFAKKK (SEQ ID NO:206), 10 mM MgAcetate and [gamma-33P-ATP] (specific activity approx. 500 cpm/pmol, concentration as required). The reaction is initiated by the addition of the MgATP mix. After incubation for 40 minutes at room temperature, the reaction is stopped by the addition of 5 μl of a 3% phosphoric acid solution. 10 μl of the reaction is then spotted onto a P30 filtermat and washed three times for 5 minutes in 75 mM phosphoric acid and once in methanol prior to drying and scintillation counting.

ALK(h) = ALK(h) (Homo sapiens, UniProt Q9UM73); conditions: read-out: percent residual activity of ALK(h)
Procedure: as §1
as §2, with “μl, ALK (h)” for “μl, Abl (m)”, “EDTA, 250” for “EDTA, 50”, “μM KKKSPGEYVNIEFG” for “μM EAIYAAPFAKKK”, “ID NO:207),” for “ID NO:206),”, “and [y -33P-ATP]” for “and [gamma-33P-ATP]”

Flt3(D835Y)(h) = Flt3(D835Y)(h) (Homo sapiens, UniProt P36888, D835Y); conditions: read-out: percent residual activity of Flt3(D835Y)(h)
Procedure: as §1
as §2, with “Flt3 (D835Y) (h)” for “Abl (m)”

MAPK1(h) = MAPK1(h) (Homo sapiens, UniProt P27361); conditions: read-out: percent residual activity of MAPK1(h)
Procedure: as §1
as §2, with “MAPK1 (h)” for “Abl (m)”, “25” for “8”, “Tris” for “MOPS”, “7.5, 0.02” for “7.0, 0.2”, “EGTA, 250” for “EDTA, 50”, “peptide,” for “EAIYAAPFAKKK (SEQ ID NO:206),”

MSK2(h) = MSK2(h) (Homo sapiens, UniProt O75676); conditions: read-out: percent residual activity of MSK2(h)
Procedure: as §1
as §2, with “μl, MSK2 (h)” for “μl, Abl (m)”, “EDTA, 30” for “EDTA, 50”, “μM GRPRTSSFAEGKK” for “μM EAIYAAPFAKKK”, “ID NO:220),” for “ID NO:206),”

SGK(h) = SGK(h) (Homo sapiens, UniProt O00141); conditions: read-out: percent residual activity of SGK(h)
Procedure: as §1
as §2, with “μl, SGK (h)” for “μl, Abl (m)”, “EDTA, 30” for “EDTA, 50”, “μM GRPRTSSFAEGKK” for “μM EAIYAAPFAKKK”, “ID NO:226),” for “ID NO:206),”

Chain of SGK(h) (O00141 whole entry): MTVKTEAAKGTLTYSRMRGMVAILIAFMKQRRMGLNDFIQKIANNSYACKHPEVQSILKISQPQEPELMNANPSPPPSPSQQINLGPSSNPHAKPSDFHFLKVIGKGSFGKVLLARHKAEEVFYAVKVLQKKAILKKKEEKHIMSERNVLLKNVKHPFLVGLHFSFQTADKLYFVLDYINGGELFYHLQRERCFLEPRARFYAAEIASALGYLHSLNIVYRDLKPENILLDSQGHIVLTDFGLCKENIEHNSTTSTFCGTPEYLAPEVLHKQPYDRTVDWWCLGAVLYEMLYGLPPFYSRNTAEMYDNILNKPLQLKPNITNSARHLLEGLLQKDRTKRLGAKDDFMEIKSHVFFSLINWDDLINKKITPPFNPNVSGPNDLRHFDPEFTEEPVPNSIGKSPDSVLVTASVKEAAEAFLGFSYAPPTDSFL
Chain of MAPK1(h) (P27361 whole entry): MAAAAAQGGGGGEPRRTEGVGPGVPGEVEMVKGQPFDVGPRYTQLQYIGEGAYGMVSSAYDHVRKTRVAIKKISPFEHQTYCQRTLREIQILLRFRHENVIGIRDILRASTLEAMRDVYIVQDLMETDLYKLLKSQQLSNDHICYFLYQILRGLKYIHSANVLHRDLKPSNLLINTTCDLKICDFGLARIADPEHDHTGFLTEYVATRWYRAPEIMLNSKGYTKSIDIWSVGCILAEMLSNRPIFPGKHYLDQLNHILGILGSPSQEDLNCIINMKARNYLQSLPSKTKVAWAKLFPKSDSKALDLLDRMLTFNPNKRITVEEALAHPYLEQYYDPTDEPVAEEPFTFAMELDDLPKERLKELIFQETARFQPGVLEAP
Chain of MSK2(h) (O75676 whole entry): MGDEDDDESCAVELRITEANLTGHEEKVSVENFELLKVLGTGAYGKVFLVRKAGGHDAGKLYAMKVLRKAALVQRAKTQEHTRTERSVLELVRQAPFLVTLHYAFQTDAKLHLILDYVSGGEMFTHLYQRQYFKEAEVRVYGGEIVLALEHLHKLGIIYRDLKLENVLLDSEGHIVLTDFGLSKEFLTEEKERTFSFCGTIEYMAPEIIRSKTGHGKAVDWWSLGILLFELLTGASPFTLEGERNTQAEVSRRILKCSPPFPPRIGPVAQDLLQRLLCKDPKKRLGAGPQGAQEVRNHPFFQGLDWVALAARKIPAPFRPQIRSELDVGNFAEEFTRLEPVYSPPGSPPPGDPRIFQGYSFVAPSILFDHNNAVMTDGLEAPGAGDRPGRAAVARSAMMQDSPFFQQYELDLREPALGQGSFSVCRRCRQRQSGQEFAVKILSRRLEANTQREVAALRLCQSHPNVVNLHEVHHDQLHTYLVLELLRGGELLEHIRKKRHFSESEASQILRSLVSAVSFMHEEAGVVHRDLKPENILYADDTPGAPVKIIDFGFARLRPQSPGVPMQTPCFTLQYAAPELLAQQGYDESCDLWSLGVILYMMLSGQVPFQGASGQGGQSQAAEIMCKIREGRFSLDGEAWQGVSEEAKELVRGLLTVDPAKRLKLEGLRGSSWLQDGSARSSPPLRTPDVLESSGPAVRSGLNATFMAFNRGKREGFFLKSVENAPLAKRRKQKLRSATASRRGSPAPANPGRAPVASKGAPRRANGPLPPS
Chain of Abl(m) (P00520 whole entry): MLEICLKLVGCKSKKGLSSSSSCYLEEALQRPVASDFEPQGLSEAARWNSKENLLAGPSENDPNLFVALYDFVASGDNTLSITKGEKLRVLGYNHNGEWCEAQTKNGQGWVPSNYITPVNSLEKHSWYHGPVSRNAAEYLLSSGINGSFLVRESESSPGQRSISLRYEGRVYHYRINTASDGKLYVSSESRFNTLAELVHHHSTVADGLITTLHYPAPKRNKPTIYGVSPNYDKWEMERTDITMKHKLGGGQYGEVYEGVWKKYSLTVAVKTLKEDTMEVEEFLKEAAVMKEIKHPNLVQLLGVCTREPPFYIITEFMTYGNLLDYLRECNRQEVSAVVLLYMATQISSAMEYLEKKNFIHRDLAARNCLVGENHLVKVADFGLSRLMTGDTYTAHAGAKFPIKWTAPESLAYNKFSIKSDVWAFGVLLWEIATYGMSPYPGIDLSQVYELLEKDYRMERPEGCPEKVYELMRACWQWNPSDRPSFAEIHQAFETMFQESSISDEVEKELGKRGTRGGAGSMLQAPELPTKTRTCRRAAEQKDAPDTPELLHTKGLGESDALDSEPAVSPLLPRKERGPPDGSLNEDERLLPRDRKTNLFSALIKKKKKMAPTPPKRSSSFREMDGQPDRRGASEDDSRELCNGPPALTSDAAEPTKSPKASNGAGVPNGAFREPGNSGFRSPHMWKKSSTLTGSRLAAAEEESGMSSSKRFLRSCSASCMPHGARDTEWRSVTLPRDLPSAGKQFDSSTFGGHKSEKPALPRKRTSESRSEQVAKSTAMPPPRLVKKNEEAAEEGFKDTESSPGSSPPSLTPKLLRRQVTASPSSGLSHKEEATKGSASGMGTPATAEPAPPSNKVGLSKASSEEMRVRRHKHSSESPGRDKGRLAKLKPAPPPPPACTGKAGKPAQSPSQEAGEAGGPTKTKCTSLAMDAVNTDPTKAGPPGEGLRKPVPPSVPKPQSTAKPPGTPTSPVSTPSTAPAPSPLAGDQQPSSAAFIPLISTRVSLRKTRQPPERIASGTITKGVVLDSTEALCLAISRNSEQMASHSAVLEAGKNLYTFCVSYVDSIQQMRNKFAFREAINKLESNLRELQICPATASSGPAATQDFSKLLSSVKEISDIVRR
Chain of ALK(h) (Q9UM73 19-1620): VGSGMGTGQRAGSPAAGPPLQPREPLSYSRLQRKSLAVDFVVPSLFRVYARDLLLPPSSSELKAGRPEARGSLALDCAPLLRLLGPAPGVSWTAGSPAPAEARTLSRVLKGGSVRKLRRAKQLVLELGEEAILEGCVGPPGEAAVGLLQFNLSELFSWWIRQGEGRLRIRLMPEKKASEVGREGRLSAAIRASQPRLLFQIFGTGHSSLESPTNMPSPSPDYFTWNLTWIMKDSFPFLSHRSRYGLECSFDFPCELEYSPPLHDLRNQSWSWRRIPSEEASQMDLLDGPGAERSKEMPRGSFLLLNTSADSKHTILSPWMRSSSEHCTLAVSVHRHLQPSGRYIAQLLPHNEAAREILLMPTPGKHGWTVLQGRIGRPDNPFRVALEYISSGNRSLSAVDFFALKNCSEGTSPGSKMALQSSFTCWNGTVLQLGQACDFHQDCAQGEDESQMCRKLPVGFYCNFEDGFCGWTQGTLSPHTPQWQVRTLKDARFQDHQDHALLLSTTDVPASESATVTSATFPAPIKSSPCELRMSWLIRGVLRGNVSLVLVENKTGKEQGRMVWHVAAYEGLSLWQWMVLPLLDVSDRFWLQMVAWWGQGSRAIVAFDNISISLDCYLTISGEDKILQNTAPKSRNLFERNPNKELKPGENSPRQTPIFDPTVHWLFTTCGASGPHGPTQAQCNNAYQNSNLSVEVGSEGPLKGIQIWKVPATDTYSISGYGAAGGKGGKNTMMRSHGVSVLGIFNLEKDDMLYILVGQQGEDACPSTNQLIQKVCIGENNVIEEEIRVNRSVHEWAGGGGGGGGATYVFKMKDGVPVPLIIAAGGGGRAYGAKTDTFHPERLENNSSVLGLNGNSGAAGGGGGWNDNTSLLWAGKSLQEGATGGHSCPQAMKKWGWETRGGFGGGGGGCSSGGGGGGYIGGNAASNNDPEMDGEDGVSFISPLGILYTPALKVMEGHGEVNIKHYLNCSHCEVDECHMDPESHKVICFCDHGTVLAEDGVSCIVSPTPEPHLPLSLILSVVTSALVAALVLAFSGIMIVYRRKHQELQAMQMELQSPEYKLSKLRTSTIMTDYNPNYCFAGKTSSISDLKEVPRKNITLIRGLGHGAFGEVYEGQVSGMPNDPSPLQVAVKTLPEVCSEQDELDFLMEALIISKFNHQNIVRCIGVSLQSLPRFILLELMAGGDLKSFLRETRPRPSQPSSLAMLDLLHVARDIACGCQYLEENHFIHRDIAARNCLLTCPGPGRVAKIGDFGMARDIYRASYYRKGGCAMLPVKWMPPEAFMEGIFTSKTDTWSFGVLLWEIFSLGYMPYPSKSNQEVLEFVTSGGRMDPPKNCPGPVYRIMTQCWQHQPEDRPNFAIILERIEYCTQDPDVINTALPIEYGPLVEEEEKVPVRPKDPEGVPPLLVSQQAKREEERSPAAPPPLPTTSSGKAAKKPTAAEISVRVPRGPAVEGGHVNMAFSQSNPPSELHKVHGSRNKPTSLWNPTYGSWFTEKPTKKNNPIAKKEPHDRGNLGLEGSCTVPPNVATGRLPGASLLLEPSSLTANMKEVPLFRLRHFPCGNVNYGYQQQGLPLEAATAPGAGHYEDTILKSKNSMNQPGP

Structure (SMILES)	remaining activity at 2.5 µM (Abl(m)) [%]	remaining activity at 2.5 µM (ALK(h)) [%]	remaining activity at 2.5 µM (Flt3(D835Y)(h)) [%]	remaining activity at 2.5 µM (MAPK1(h)) [%]	remaining activity at 2.5 µM (MSK2(h)) [%]	remaining activity at 2.5 µM (SGK(h)) [%]
CN1CCCC1CCNC(=O)c1cn2c3c(c(N4CCC(c5cnccn5)C4)c(F)cc3c1=O)Oc1cc3ccccc3cc1-2 (stereo not drawn) [Compound A-1]	9	69	36	92	50	50
CC(=O)N1CCN(c2ccc3c(=O)c(C(=O)NCCN4CCCC4)c4n(C)c5ccccc5n4c3n2)CC1 [Compound B-1]	104	97	78	94	94	103
